This assay addresses T1, human SARM1(50-724) (Homo sapiens, UniProt Q6SZW1).
T1 construct: 40 nM human SARM1(50-724)
T1 sequence (Q6SZW1 50-724): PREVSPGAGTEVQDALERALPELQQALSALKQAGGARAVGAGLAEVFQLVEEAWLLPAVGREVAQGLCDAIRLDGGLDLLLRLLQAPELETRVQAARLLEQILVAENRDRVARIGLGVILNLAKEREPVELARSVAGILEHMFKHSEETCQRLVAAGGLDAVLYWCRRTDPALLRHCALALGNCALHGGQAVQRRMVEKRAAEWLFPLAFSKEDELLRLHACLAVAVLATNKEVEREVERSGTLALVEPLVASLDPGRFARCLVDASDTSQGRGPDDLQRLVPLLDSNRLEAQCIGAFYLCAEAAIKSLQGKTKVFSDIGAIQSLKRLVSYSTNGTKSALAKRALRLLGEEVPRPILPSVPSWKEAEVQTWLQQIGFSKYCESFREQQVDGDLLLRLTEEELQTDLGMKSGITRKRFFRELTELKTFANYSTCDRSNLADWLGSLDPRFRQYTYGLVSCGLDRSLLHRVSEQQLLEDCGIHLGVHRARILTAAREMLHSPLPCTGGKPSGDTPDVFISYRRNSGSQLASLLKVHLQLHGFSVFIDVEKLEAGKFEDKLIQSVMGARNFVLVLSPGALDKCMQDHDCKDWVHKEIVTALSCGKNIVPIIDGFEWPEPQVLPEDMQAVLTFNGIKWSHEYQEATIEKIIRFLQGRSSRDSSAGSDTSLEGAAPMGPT
In words: SARM1 biological assay: HPLC measurement of NAD and NAM peak areas. Type of assay: biochemical. The procedure: Each reaction was run at a volume of 20 μL containing 50 μM compound (dissolved in DMSO; final concentration of DMSO is 1% v/v), 40 nM human SARM1(50-724), 0.3 mM NMN, 20 μM NAD, 1 mM TCEP, 25 mM HEPES pH 7.4, 10 mM KCl and 10 mM MgCl2. The reaction was incubated at room temperature for 60 minutes and quenched with 20 μL of 0.4% formic acid. The samples were run on Agilent HPLC 1260 Infinity II with Synergi 2.5 μM Fusion-RP 100 Å (100×3.0 mm) LC column from Phenomenex. Total run time for each sample was 4 minutes. The run was isocratic with 1.5% methanol in 40 mM ammonium acetate pH 6.0. Samples were run at a flow rate of 0.8 mL/min at 55° C. Peak areas of NAD and NAM were determined using OpenLAB CDS (Chem Station edition) software. For dose-response, the compound was diluted serially 1:3 in DMSO and added to the reaction starting at a final compound concentration of 100 μM in 1% DMSO.

The mark [1] stands for this setting: 40 nM human SARM1(50-724), 0.3 mM NMN, 20 μM NAD, 60 min at room temperature, dose-response 1:3 serial dilution from 100 μM, read-out: Average IC50.

Like-named read-outs stand apart in the source and are kept apart here. Where only a bound is given, the exact number is not on record here.

As to `FC(F)(F)Sc1ncc(Cc2ccncc2)[nH]1` [Example 28, 4-((2-((Trifluoromethyl)thio)-1H-imidazol-5-yl)methyl)pyridine], the half-maximal inhibitory concentration (IC50) was < 1000 nM.

For the compound `F[C@H]1C[C@@H](c2nc(Cc3ccncc3)c[nH]2)C1` [Example 29, (cis)-4-((2-(3-Fluorocyclobutyl)-1H-imidazol-4-yl)methyl)pyridine], the IC50 was < 1000 nM.

As to `F[C@H]1C[C@H](c2nc(Cc3ccncc3)c[nH]2)C1` [Example 30, (trans)-4-((2-(3-Fluorocyclobutyl)-1H-imidazol-4-yl)methyl)pyridine], the IC50 lay in the range of 1000 to 10000 nM.

`FC1(F)CNC(c2nc(Cc3ccncc3)c[nH]2)C1` (stereo not drawn) [Example 32, 4-((2-(4,4-Difluoropyrrolidin-2-yl)-1H-imidazol-4-yl)methyl)pyridine]: the concentration for half-maximal inhibition (IC50) fell in the range of 1000 to 10000 nM.

`ClC1CC(c2nc(Cc3ccncc3)c[nH]2)C1` (stereo not drawn) [Example 34, 4-((2-(3-Chlorocyclobutyl)-1H-imidazol-4-yl)methyl)pyridine]: the IC50 is < 1000 nM.

For the compound `N#C[C@H]1C[C@@H](c2nc(Cc3ccncc3)c[nH]2)C1` [Example 35A], the IC50 under setting [1] fell in the range of 1000 to 10000 nM.

In the case of `N#CC1CC(c2nc(Cc3ccncc3)c[nH]2)C1` [Example 35B, (trans)-(1S, 3S)-3-(4-Pyridin-4ylmethyl)-1H-imidazol-2-yl)cyclobutane-1-carbonitrile], the IC50 is < 1000 nM.

Turning to `FC(F)(F)O[C@H]1C[C@@H](c2nc(Cc3ccncc3)c[nH]2)C1` [Example 37A, (cis)-4-((2-(3-(Trifluoromethoxy)cyclobutyl)-1H-imidazole-4-yl)methyl)pyridine], the 50% inhibitory concentration (IC50) is < 1000 nM.

As for `FC(F)(F)O[C@H]1C[C@H](c2nc(Cc3ccncc3)c[nH]2)C1` [Example 37B, (trans)-4-((2-(3-(Trifluoromethoxy)cyclobutyl)-1H-imidazole-4-yl)methyl)pyridine], the IC50 was 1000 to 10000 nM.

For `N#CC1(F)CC(c2nc(Cc3ccncc3)c[nH]2)C1` (stereo not drawn) [Example 38A], the IC50 under setting [1] lay within 1000 to 10000 nM.

For the compound `FC1(Cl)CC1c1nc(Cc2ccncc2)c[nH]1` (stereo not drawn) [Example 39, 4-((2-(2-Chloro-2-fluorocyclopropyl)-1H-imidazol-4-yl)methyl)pyridine], the half-inhibitory concentration (IC50) was < 1000 nM.

Consider `FC1(F)CC1(F)c1nc(Cc2ccncc2)c[nH]1` (stereo not drawn) [Example 40, 4-((2-(1,2,2-Trifluorocyclopropyl)-1H-imidazol-4-yl)methyl)pyridine], for which the IC50 was < 1000 nM.

(Values after patent US20260285834A1, “SUBSTITUTED PYRIDINE DERIVATIVES AS SARM1 INHIBITORS” (Nura Bio, Inc., priority 2022, published 2026).)
